In patent publication US20110257074A1, “METHOD FOR THE PURIFICATION OF SUBSTITUTED CYCLOPENT-2-EN-1-ONE CONGENERS AND SUBSTITUTED 1,3-CYCLOPENTADIONE CONGENERS FROM A COMPLEX MIXTURE USING COUNTERCURRENT SEPARATION” (Metaproteomics, LLC, priority 2008, published 2011):

How the values were obtained:
[1] = Shake-flask liquid distribution ratio (Kd), Hexane:Water:Buffer 10:9:1 solvent system; type: physicochemical
Procedure: Several shake-flask experiments were conducted to test several solvent systems and determine the liquid distribution ratio (Kd) and partition coefficient values for optimal separations. Partition coefficient values derived from shake-flask experiments are a reliable predictor of countercurrent chromatographic behavior. Kd is the concentration of the analyte in the upper phase divided by the concentration of the analyte in the lower phase and, in the alternative, may be listed as Ku/l.
General Procedure and Parameters for Shake Flask Experiments: Addition of 1 mL of the stock buffer at a known pH. Addition of the other necessary solvents to make up the system. Addition of the analyte mixture dissolved in hexane at 400 mg/mL. Final analyte concentration in the shake flask is 0.1 mg/mL. The flask was capped and mixed (by a vortex mixer) for 10 seconds. An aliquot was taken from the upper phase for HPLC analysis, and additionally a separate aliquot was taken from the lower phase for HPLC analysis from each flask. Each component was analyzed by HPLC and integrated using Shimadzu Class VP Software version 7.3 SP1.

[2] = Partition coefficient in trial HSCCC countercurrent separations of THIAA; type: physicochemical
Procedure: All HSCCC experimentation was conducted on a CCC-1000 J-type three-coiled planetary motion HSCCCC (Pharma-Tech Research Corp., Baltimore, Md., USA). The rotation radius is 7.5 cm, and 3×108 mL PTFE Teflon coils with an inner diameter of 1.6 mm, an outer diameter of 2.7 mm, and beta values of 0.47 to 0.73 for all coils. This was coupled with Shimadzu (Kyoto, Japan) liquid chromatography instrumentation: LC-20AT pump, DGU-20A5 degasser, CBM-20A controller, and SPD-10AV UV detector. A preparative Rheodyne (Rohnert Park, Calif. USA) 3725i-038 injector was in line with a 3.8 mL sample loop (changed to 10 mL for entry 7). The sample was monitored at 254 nm and 314 nm during the course of the run.
KU/L values for THIAA were determined in a variety of HEMWat solvent systems according to the shake-flask partitioning assay. Two solvent systems, referred to as A and B, provided K values within the range 1.5-2.5 and with significant differences between THIAA congeners (•K). For these reasons solvent systems A and B were selected for further development on the HSCCC (Table 9). […] The entries in Table 10 correspond to seven trial THIAA HSCCC purifications; entries 1-3 were conducted using solvent system A; entries 4-7 used solvent system B. Because of the difference in THIAA concentration between the shake-flask assay (0.1 mg/mL, 0.273 mM) and the HSCCC sample loop (100 mg/mL; 273 mM), aqueous phase buffer concentrations of 1.2 M (entries 1-3, Table 10) and 555 mM (entries 4-7, Table 10) were employed for the HSCCC trials. Entry 3 in Table 10 uses a bi-phasic sample-loop injection (solvent C, Table 9) consisting of 1.9 mL of upper phase (200 mg/mL THIAA, 0.55M) and 1.9 mL of lower phase (6.5M NH4HAc aq.). A switching volume was employed in entries 2, 6 and 7 in order to assess the elution-extrusion protocol as reported by Pauli et al.
Entries 4 & 5 Table 10, examine the effect of increasing the pH for solvent system B on the resolution between THIAA congeners. We reasoned that increased pH leads to a greater concentration of the ionized form of the THIAA (conjugate base) thus resulting in greater amounts of THIAA retained in the aqueous stationary phase i.e., increased retention volume (Vr).

[3] = trial 1, solvent system A, ascending elution, 680 rpm, 4 mL/min, 3.8 mL sample loop
[4] = trial 2, solvent system A, switching volume 320 mL, ascending elution, 680 rpm, 4 mL/min
[5] = trial 3, solvent system A, bi-phasic sample-loop injection (1.9 mL solvent system C), ascending elution
[6] = trial 4, solvent system B′, ascending elution, 680 rpm, 4 mL/min
[7] = trial 5, solvent system B, ascending elution, 680 rpm, 4 mL/min
[8] = trial 6, solvent system B, switching volume 600 mL, ascending elution
[9] = trial 7, solvent system B, switching volume 520 mL, 1.0 g raw material loaded, 10 mL sample loop

SMILES	THIAA K Value ([1]; pH 4.9, Aug. 5, 2008)	THIAA K Value ([1]; pH 5.5, Aug. 5, 2008)	THIAA K Value ([1]; pH 5.6, Aug. 5, 2008)	THIAA K Value ([1]; pH 6.0, Aug. 5, 2008)	Partition Coefficient [2, 3]	Partition Coefficient [2, 4]	Partition Coefficient [2, 5]	Partition Coefficient [2, 6]	Partition Coefficient [2, 7]	Partition Coefficient [2, 8]	Partition Coefficient [2, 9]
CC(C)CCC(=O)[C@]1(O)C(O)=C(C(=O)C(C)C)C(=O)[C@H]1CCC(C)C [TH1, (+)-(4R,5S)-3,4-dihydroxy-2-isobutyryl-5-(3-methylbutyl)-4-(4-methylpentanoyl)cyclopent-2-en-1-one]	16.5	4.2	3.0	1.5	2.0	2.0	2.1	1.7	2.5	2.7	2.6
CC(C)CCC(=O)[C@@]1(O)C(O)=C(C(=O)C(C)C)C(=O)[C@H]1CCC(C)C [TH2, (−)-(4S,5S)-3,4-dihydroxy-2-isobutyryl-5-(3-methylbutyl)-4-(4-methylpentanoyl)cyclopent-2-en-1-one]	10.8	2.5	1.8	0.9	–	–	–	–	–	–	–
CCC(C)C(=O)C1=C(O)C(O)(C(=O)CCC(C)C)C(CCC(C)C)C1=O (stereo not drawn) [TH3, trans tetra ad-isoalpha acid]	60.3	17.8	11.4	5.5	–	–	–	–	–	–	–

Continued, values first:

THIAA K Value ([1]; pH 4.9, Aug. 5, 2008)	THIAA K Value ([1]; pH 5.5, Aug. 5, 2008)	THIAA K Value ([1]; pH 5.6, Aug. 5, 2008)	THIAA K Value ([1]; pH 6.0, Aug. 5, 2008)	Partition Coefficient [2, 3]	Partition Coefficient [2, 4]	Partition Coefficient [2, 5]	Partition Coefficient [2, 6]	Partition Coefficient [2, 7]	Partition Coefficient [2, 8]	Partition Coefficient [2, 9]	SMILES
55.6	16.1	11.0	5.5	1.0	1.0	1.1	0.6	0.8	0.8	0.8	CCC(C)C(=O)C1=C(O)[C@@](O)(C(=O)CCC(C)C)[C@H](CCC(C)C)C1=O (single isomer, unassigned; (+)) [TH4]
32.8	9.5	6.6	3.3	1.4	1.4	1.4	0.9	1.3	1.3	1.5	CC(C)CCC(=O)[C@]1(O)C(O)=C(C(=O)CC(C)C)C(=O)[C@H]1CCC(C)C [TH5, (+)-(4R,5S)-3,4-dihydroxy-2-(3-methylbutanoyl)-5-(3-methylbutyl)-4-(4-methylpentanoyl)cyclopent-2-en-1-one]
